Assay: recombinant UMI read abundance after kanamycin selection (control-corrected) (log10(CPM+1)); higher = more efficient recombination; extreme values may be limits of the assay; sequences stand for … in AGTGCAGAGAAAATCGGCCAGTTTTCTCTGCCTGCAGTCCGCATGCCGTGGGACCCCTTGGGTTCTAACCTGTTGCCTAGATTTATGCAGCGGACTGCCTTTCTCCCAAAGTGATAAACCGG…AGGTTGGTTTCACT; site = the 11-nt donor
Outline: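 Reported values are log10(CPM+1) from a pooled Escherichia coli screen of donor and donor-binding-loop pairs for the IS621 bridge recombinase. Selection used IPTG (0.07 mM) plus kanamycin, against unselected plating, each in two replicates. Recombinant UMIs were amplified across the donor–target junction, sequenced, converted to CPM, averaged over replicates and scaled by control-derived factors.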
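Also: IS621 bridge recombinase in Escherichia coli cells against a fixed T5 target plasmid.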

| Sequence | recombinant UMI read abundance (log10) |
| --- | --- |
| CGGAATCCATGGACCGGTTTTCCCGGTAATCCGTATTTGTT (site CGCAATCCTAA) | 0.00384 |
| CGGAATCCATGGACCGGTTTTCCCGGTAATCCGTATTTGTT (site CGCAATCCTAC) | 0 |
| CGGAATCCATGGACCGGTTTTCCCGGTAATCCGTATTTGTT (site CGCAATCCTCA) | 0.00634 |
| CGGAATCCATGGACCGGTTTTCCCGGTAATCCGTATTTGTT (site CGCAATGCTAA) | 0.00802 |
| CGGAATCCATGGACCGGTTTTCCCGGTAATCCGTATTTGTT (site CGCACTCCTAA) | 0.0157 |
| CGGAATCCATGGACCGGTTTTCCCGGTAATCCGTATTTGTT (site CGCCATCCTAA) | 0 |
| CGGAATCCATGGACCGGTTTTCCCGGTAATCCGTATTTGTT (site CGGAAACCTAA) | 1.09 |
| CGGAATCCATGGACCGGTTTTCCCGGTAATCCGTATTTGTT (site CGGAAACCTAG) | 0.112 |
| CGGAATCCATGGACCGGTTTTCCCGGTAATCCGTATTTGTT (site CGGAAACCTTA) | 0 |
| CGGAATCCATGGACCGGTTTTCCCGGTAATCCGTATTTGTT (site CGGAAATCTAA) | 0 |
| CGGAATCCATGGACCGGTTTTCCCGGTAATCCGTATTTGTT (site CGGAACCCTAA) | 0.157 |
| CGGAATCCATGGACCGGTTTTCCCGGTAATCCGTATTTGTT (site CGGAACCCTAC) | 0.00563 |
| CGGAATCCATGGACCGGTTTTCCCGGTAATCCGTATTTGTT (site CGGAACCCTCA) | 0.0146 |
| CGGAATCCATGGACCGGTTTTCCCGGTAATCCGTATTTGTT (site CGGAACGCTAA) | 0.00389 |
| CGGAATCCATGGACCGGTTTTCCCGGTAATCCGTATTTGTT (site CGGAAGACTAA) | 0 |
| CGGAATCCATGGACCGGTTTTCCCGGTAATCCGTATTTGTT (site CGGAAGCCTAA) | 0.0104 |
| CGGAATCCATGGACCGGTTTTCCCGGTAATCCGTATTTGTT (site CGGAAGCCTAT) | 0.00319 |
| CGGAATCCATGGACCGGTTTTCCCGGTAATCCGTATTTGTT (site CGGAAGCCTGA) | 0 |
| CGGAATCCATGGACCGGTTTTCCCGGTAATCCGTATTTGTT (site CGGAATACTAA) | 0 |
| CGGAATCCATGGACCGGTTTTCCCGGTAATCCGTATTTGTT (site CGGAATACTAT) | 0 |
| CGGAATCCATGGACCGGTTTTCCCGGTAATCCGTATTTGTT (site CGGAATACTGA) | 0 |
| CGGAATCCATGGACCGGTTTTCCCGGTAATCCGTATTTGTT (site CGGAATCCTAA) | 1.19 |
| CGGAATCCATGGACCGGTTTTCCCGGTAATCCGTATTTGTT (site CGGAATCCTAC) | 0 |
| CGGAATCCATGGACCGGTTTTCCCGGTAATCCGTATTTGTT (site CGGAATCCTAG) | 0 |
| CGGAATCCATGGACCGGTTTTCCCGGTAATCCGTATTTGTT (site CGGAATCCTAT) | 0 |

| Sequence | recombinant UMI read abundance (log10) |
| --- | --- |
| CGGAATCCATGGACCGGTTTTCCCGGTAATCCGTATTTGTT (site CGGAATCCTCA) | 0.00562 |
| CGGAATCCATGGACCGGTTTTCCCGGTAATCCGTATTTGTT (site CGGAATCCTCC) | 0.00652 |
| CGGAATCCATGGACCGGTTTTCCCGGTAATCCGTATTTGTT (site CGGAATCCTGA) | 1.65 |
| CGGAATCCATGGACCGGTTTTCCCGGTAATCCGTATTTGTT (site CGGAATCCTGT) | 0 |
| CGGAATCCATGGACCGGTTTTCCCGGTAATCCGTATTTGTT (site CGGAATCCTTA) | 1.56 |
| CGGAATCCATGGACCGGTTTTCCCGGTAATCCGTATTTGTT (site CGGAATCCTTG) | 0 |
| CGGAATCCATGGACCGGTTTTCCCGGTAATCCGTATTTGTT (site CGGAATGCTAA) | 0.0054 |
| CGGAATCCATGGACCGGTTTTCCCGGTAATCCGTATTTGTT (site CGGAATGCTAC) | 0 |
| CGGAATCCATGGACCGGTTTTCCCGGTAATCCGTATTTGTT (site CGGAATGCTCA) | 0 |
| CGGAATCCATGGACCGGTTTTCCCGGTAATCCGTATTTGTT (site CGGAATTCTAA) | 0 |
| CGGAATCCATGGACCGGTTTTCCCGGTAATCCGTATTTGTT (site CGGAATTCTAG) | 0 |
| CGGAATCCATGGACCGGTTTTCCCGGTAATCCGTATTTGTT (site CGGAATTCTTA) | 0 |
| CGGAATCCATGGACCGGTTTTCCCGGTAATCCGTATTTGTT (site CGGACCCCTAA) | 0.00922 |
| CGGAATCCATGGACCGGTTTTCCCGGTAATCCGTATTTGTT (site CGGACTCCTAA) | 0.00741 |
| CGGAATCCATGGACCGGTTTTCCCGGTAATCCGTATTTGTT (site CGGACTCCTAC) | 0.00516 |
| CGGAATCCATGGACCGGTTTTCCCGGTAATCCGTATTTGTT (site CGGACTCCTCA) | 0.00467 |
| CGGAATCCATGGACCGGTTTTCCCGGTAATCCGTATTTGTT (site CGGACTGCTAA) | 0.0124 |
| CGGAATCCATGGACCGGTTTTCCCGGTAATCCGTATTTGTT (site CGGAGGCCTAA) | 0.012 |
| CGGAATCCATGGACCGGTTTTCCCGGTAATCCGTATTTGTT (site CGGAGTACTAA) | 0.00934 |
| CGGAATCCATGGACCGGTTTTCCCGGTAATCCGTATTTGTT (site CGGAGTCCTAA) | 0.00217 |
| CGGAATCCATGGACCGGTTTTCCCGGTAATCCGTATTTGTT (site CGGAGTCCTAT) | 0 |
| CGGAATCCATGGACCGGTTTTCCCGGTAATCCGTATTTGTT (site CGGAGTCCTGA) | 0 |
| CGGAATCCATGGACCGGTTTTCCCGGTAATCCGTATTTGTT (site CGGATACCTAA) | 0.0155 |
| CGGAATCCATGGACCGGTTTTCCCGGTAATCCGTATTTGTT (site CGGATTCCTAA) | 0.0126 |
| CGGAATCCATGGACCGGTTTTCCCGGTAATCCGTATTTGTT (site CGGATTCCTAG) | 0 |

| Sequence | recombinant UMI read abundance (log10) |
| --- | --- |
| CGGAATCCATGGACCGGTTTTCCCGGTAATCCGTATTTGTT (site CGGATTCCTTA) | 0 |
| CGGAATCCATGGACCGGTTTTCCCGGTAATCCGTATTTGTT (site CGGATTTCTAA) | 0 |
| CGGAATCCATGGACCGGTTTTCCCGGTAATCCGTATTTGTT (site CGGCACCCTAA) | 0.0425 |
| CGGAATCCATGGACCGGTTTTCCCGGTAATCCGTATTTGTT (site CGGCATCCTAA) | 0.0145 |
| CGGAATCCATGGACCGGTTTTCCCGGTAATCCGTATTTGTT (site CGGCATCCTAC) | 0.011 |
| CGGAATCCATGGACCGGTTTTCCCGGTAATCCGTATTTGTT (site CGGCATCCTCA) | 0.00889 |
| CGGAATCCATGGACCGGTTTTCCCGGTAATCCGTATTTGTT (site CGGCATGCTAA) | 0.0214 |
| CGGAATCCATGGACCGGTTTTCCCGGTAATCCGTATTTGTT (site CGGCCTCCTAA) | 0 |
| CGGAATCCATGGACCGGTTTTCCCGGTAATCCGTATTTGTT (site CGGGAACCTAA) | 0.00313 |
| CGGAATCCATGGACCGGTTTTCCCGGTAATCCGTATTTGTT (site CGGGATCCTAA) | 0.0888 |
| CGGAATCCATGGACCGGTTTTCCCGGTAATCCGTATTTGTT (site CGGGATCCTAG) | 0 |
| CGGAATCCATGGACCGGTTTTCCCGGTAATCCGTATTTGTT (site CGGGATCCTTA) | 0.00923 |
| CGGAATCCATGGACCGGTTTTCCCGGTAATCCGTATTTGTT (site CGGGATTCTAA) | 0 |
| CGGAATCCATGGACCGGTTTTCCCGGTAATCCGTATTTGTT (site CGGGTTCCTAA) | 0.0107 |
| CGGAATCCATGGACCGGTTTTCCCGGTAATCCGTATTTGTT (site CGGTAGCCTAA) | 0.0806 |
| CGGAATCCATGGACCGGTTTTCCCGGTAATCCGTATTTGTT (site CGGTATACTAA) | 0.0163 |
| CGGAATCCATGGACCGGTTTTCCCGGTAATCCGTATTTGTT (site CGGTATCCTAA) | 0.107 |
| CGGAATCCATGGACCGGTTTTCCCGGTAATCCGTATTTGTT (site CGGTATCCTAT) | 0 |
| CGGAATCCATGGACCGGTTTTCCCGGTAATCCGTATTTGTT (site CGGTATCCTGA) | 0 |
| CGGAATCCATGGACCGGTTTTCCCGGTAATCCGTATTTGTT (site CGGTGTCCTAA) | 0.0136 |
| CGGAATCCATGGACCGGTTTTCCCGGTAATCCGTATTTGTT (site CGTAAGCCTAA) | 0.0106 |
| CGGAATCCATGGACCGGTTTTCCCGGTAATCCGTATTTGTT (site CGTAATACTAA) | 0.00407 |
| CGGAATCCATGGACCGGTTTTCCCGGTAATCCGTATTTGTT (site CGTAATCCTAA) | 0.0103 |
| CGGAATCCATGGACCGGTTTTCCCGGTAATCCGTATTTGTT (site CGTAATCCTAT) | 0 |
| CGGAATCCATGGACCGGTTTTCCCGGTAATCCGTATTTGTT (site CGTAATCCTGA) | 0 |

From the supplement of paper PMC11208160
